Measurements published in the supplement of paper PMC6045584.
± gives the standard deviation of the averaged measurements.

Tests used:
ABT-737 = compound: CN(C)CC[C@H](CSc1ccccc1)Nc1ccc(S(=O)(=O)NC(=O)c2ccc(N3CCN(Cc4ccccc4-c4ccc(Cl)cc4)CC3)cc2)cc1[N+](=O)[O-] [ABT-737]; experiment: surviving fraction relative to DMSO-only wells; higher = less growth inhibition; conditions: exposure time: 5 days
Summary of the method: (§1)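 Inhibitors at 0.5, 1, 5, 10, 50, 100, 500 and 1000 nM were applied continuously for five days to tumour cell lines seeded in log phase at 250–500 cells per well in 384-well plates 24 hours earlier. Viability was measured by CellTiter-Glo luminescence and expressed as surviving fraction relative to the median of DMSO-only wells. Luminescence was taken after 10 minutes at room temperature.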

FLAVOPIRIDOL = compound: CN1CC[C@H](c2c(O)cc(O)c3c(=O)cc(-c4ccccc4Cl)oc23)[C@H](O)C1 [FLAVOPIRIDOL]; experiment: as above; conditions: exposure time: 5 days
Summary of the method: as §1

Test System | surviving fraction (ABT-737; 0.5 nM) | surviving fraction (ABT-737; 1 nM) | surviving fraction (ABT-737; 5 nM) | surviving fraction (ABT-737; 10 nM) | surviving fraction (ABT-737; 50 nM) | surviving fraction (ABT-737; 100 nM) | surviving fraction (ABT-737; 500 nM) | surviving fraction (ABT-737; 1000 nM) | surviving fraction (FLAVOPIRIDOL; 0.5 nM) | surviving fraction (FLAVOPIRIDOL; 1 nM) | surviving fraction (FLAVOPIRIDOL; 5 nM) | surviving fraction (FLAVOPIRIDOL; 10 nM) | surviving fraction (FLAVOPIRIDOL; 50 nM) | surviving fraction (FLAVOPIRIDOL; 100 nM) | surviving fraction (FLAVOPIRIDOL; 500 nM) | surviving fraction (FLAVOPIRIDOL; 1000 nM)
CCK81 LARGE INTESTINE | 0.869 ± 0.15 | 0.887 ± 0.025 | 0.83 ± 0.11 | 0.847 ± 0.077 | 0.859 ± 0.11 | 0.724 ± 0.13 | 0.678 ± 0.071 | 0.695 ± 0.053 | 0.883 ± 0.13 | 0.817 ± 0.082 | 0.785 ± 0.15 | 0.813 ± 0.1 | 0.416 ± 0.062 | 0.0273 ± 0.011 | 0.0177 ± 0.0015 | 0.0203 ± 0.00058
G292 BONE | 1.06 ± 0.043 | 1.03 ± 0.021 | 1.08 ± 0.014 | 1.02 ± 0.012 | 1.07 ± 0.022 | 1.06 ± 0.024 | 1.02 ± 0.019 | 0.904 ± 0.027 | 0.97 ± 0.068 | 0.987 ± 0.057 | 1.033 ± 0.0078 | 0.995 ± 0.024 | 0.628 ± 0.039 | 0.18 ± 0.0055 | 0.0742 ± 0.0043 | 0.0712 ± 0.0055
HCC38 BREAST | 1.22 ± 0.037 | 1.23 ± 0.086 | 1.3 ± 0.23 | 1.31 ± 0.049 | 1.21 ± 0.11 | 1.26 ± 0.17 | 0.873 ± 0.12 | 0.714 ± 0.068 | 1.18 ± 0.1 | 1.22 ± 0.13 | 1.33 ± 0.097 | 1.34 ± 0.21 | 1.02 ± 0.15 | 0.571 ± 0.18 | 0.046 ± 0.0053 | 0.0423 ± 0.0093
HCC70 BREAST | 1.07 ± 0.044 | 1.11 ± 0.08 | 1.1 ± 0.065 | 1.11 ± 0.051 | 1.06 ± 0.092 | 1.03 ± 0.078 | 1 ± 0.048 | 0.978 ± 0.032 | 1.03 ± 0.06 | 1.02 ± 0.11 | 1.06 ± 0.1 | 1.01 ± 0.11 | 0.784 ± 0.1 | 0.129 ± 0.078 | 0.0557 ± 0.032 | 0.0423 ± 0.019
HMLE3 BREAST | 1.06 ± 0.073 | 1.06 ± 0.049 | 1.15 ± 0.013 | 1.17 ± 0.11 | 1.1 ± 0.13 | 1.17 ± 0.12 | 1.17 ± 0.13 | 1.22 ± 0.1 | 1.07 ± 0.088 | 0.951 ± 0.097 | 1.16 ± 0.087 | 1.11 ± 0.097 | 0.771 ± 0.074 | 0.131 ± 0.029 | 0.026 ± 0.0036 | 0.0233 ± 0.0015
HMT3552 BREAST | 1.01 ± 0.084 | 1.02 ± 0.033 | 1.04 ± 0.035 | 0.979 ± 0.082 | 1.1 ± 0.036 | 1.23 ± 0.038 | 1.03 ± 0.06 | 1.17 ± 0.03 | 1.06 ± 0.041 | 1.05 ± 0.045 | 0.986 ± 0.071 | 0.963 ± 0.027 | 0.232 ± 0.019 | 0.068 ± 0.0027 | 0.066 ± 0.003 | 0.061 ± 0.0027
HS57T BREAST | 1.03 ± 0.056 | 1.09 ± 0.011 | 1.08 ± 0.072 | 1.11 ± 0.093 | 1.04 ± 0.01 | 1.06 ± 0.066 | 0.981 ± 0.039 | 0.965 ± 0.018 | 1.06 ± 0.053 | 1.06 ± 0.015 | 1.12 ± 0.037 | 1.16 ± 0.035 | 0.667 ± 0.018 | 0.0337 ± 0.0025 | 0.036 ± 0.001 | 0.0327 ± 0.0021
HS578T BREAST | 1.08 ± 0.11 | 1.37 ± 0.23 | 1.26 ± 0.15 | 1.24 ± 0.11 | 1.18 ± 0.073 | 1.15 ± 0.15 | 0.975 ± 0.021 | 0.955 ± 0.059 | 1.13 ± 0.054 | 1.21 ± 0.13 | 1.19 ± 0.29 | 1.21 ± 0.2 | 0.667 ± 0.08 | 0.0923 ± 0.01 | 0.068 ± 0.0036 | 0.0673 ± 0.0025
